US20160135455A1, “SAFENED HERBICIDAL COMPOSITIONS COMPRISING PYRIDINE CARBOXYLIC ACIDS” (Dow AgroSciences LLC, priority 2014, published 2016)
Read-outs that look alike come from different tables or passages of the source.

Assays:
Type in all cases: in vivo
[1] = tested on: poinsettia (EPHHL, Euphorbia heterophylla); assay: Postemergence greenhouse trial, herbicidal efficacy on poinsettia; details: Euphorbia heterophylla, post-emergence, 528 h, read-out: % visual injury, Obs, EPHHL
Protocol: (§1) Seeds of the desired test plant species were planted in Sun Gro MetroMix® 306 planting mixture, which typically has a pH of 6.0 to 6.8 and an organic matter content of about 30 percent, in plastic pots with a surface area of 103.2 square centimeters (cm^2). When required to ensure good germination and healthy plants, a fungicide treatment and/or other chemical or physical treatment was applied. The plants were grown for 7-36 days (d) in a greenhouse with an approximate 14-hour (h) photoperiod which was maintained at about 23° C. during the day and 22° C. during the night. Nutrients and water were added on a regular basis and supplemental lighting was provided with overhead metal halide 1000-Watt lamps as necessary. The plants were employed for testing when they reached the second or third true leaf stage.
(§2) Weighed amounts of technical material were dissolved in a volume of 97:3 volume per volume (v/v) acetone/dimethyl sulfoxide (DMSO) to stock solutions. […] The concentrated stock solutions were diluted with an aqueous mixture of 1.5% v/v of Agri-dex crop oil concentrate to provide the appropriate application rates. Compound requirements are based upon a 12 milliliter (mL) application volume at a rate of 187 liters per hectare (L/ha). Stocks solutions of the safeners were prepared following the same procedure. Spray solutions of the safeners and experimental compound mixtures were prepared by adding the stock solutions to the appropriate amount of dilution solution to form a 12 mL spray solution in two-way combinations. Formulated compounds were applied to the plant material with an overhead Mandel track sprayer equipped with 8002E nozzles calibrated to deliver 187 L/ha over an application area of 0.503 square meters (m^2) at a spray height of 18 inches (43 centimeters (cm)) above average plant canopy. Control plants were sprayed in the same manner with the solvent blank. All herbicide application (component a) rates are in g ae/ha and all safener (component b) rates are in g ai/ha.
(§3) The treated plants and control plants were placed in a greenhouse as described above and watered by sub-irrigation to prevent wash-off of the test compounds. After 20-22 d, the condition of the test plants as compared with that of the control plants was determined visually and scored on a scale of 0 to 100 percent where 0 corresponds to no injury and 100 corresponds to complete kill. The condition of the test plants was compared with that of the control plants as determined visually and scored on a scale of 0 to 100 percent, where 0 corresponds to no injury and 100 corresponds to complete kill. Colby's equation was used to determine the herbicidal effects expected from the mixtures.

[2] = tested on: thistle (CIRAR, Cirsium arvense); assay: Postemergence greenhouse trial, herbicidal efficacy on thistle; details: post-emergence, 528 h
Protocol: as §1, §2, §3

[3] = tested on: winter rape (BRSNW, Brassica napus); assay: Postemergence greenhouse trial, herbicidal efficacy on winter rape; details: post-emergence, 528 h
Protocol: as §1, §2, §3

[4] = tested on: lambsquarters (CHEAL, Chenopodium album); assay: Postemergence greenhouse trial, herbicidal efficacy on lambsquarters; details: post-emergence, 528 h
Protocol: as §1, §2, §3

[5] = tested on: wheat (TRZAS), Triticum aestivum (spring wheat); assay: Postemergence greenhouse trial, crop injury (phytotoxicity/safening) on wheat; details: applied alone at 35 g/ha, scored 20-22 d, 0 = no injury, 100 = complete kill
Protocol: as §1, §2, §3
(§4) The safener fenchlorazole-ethyl was combined with compound 1, compound 2, compound 3, compound 4, compound 5, and compound 6, and applied to wheat (TRZAS), and the phytotoxicity of the herbicidal compositions was measured. In addition, the efficacy of the herbicidal composition on velvetleaf (ABUTH, Abutilon theophrasti), pigweed (AMARE, Amaranthus retroflexus), winter rape (BRSNW, Brassica napus), lambsquarters (CHEAL, Chenopodium album), thistle (CIRAR, Cirsium arvense), nutsedge (CYPES, Cyperus esculentus), poinsettia (EPHHL, Euphorbia heterophylla), wild buckwheat (POLCO, Polygonum convolvulus), giant foxtail (SETFA, Setaria faberi), sorghum (SORVU, Sorghum bicolor), chickweed (STEME, Stellaria media), and wild pansy (VIOTR, Viola tricolor) was evaluated.
The safener isoxadifen-ethyl was combined with compound 1, compound 2, compound 3, compound 4, compound 5, and compound 6, and applied to wheat (TRZAS), and the phytotoxicity of the herbicidal compositions was measured. […]

[6] = tested on: corn/maize (ZEAMX), Zea mays; assay: Postemergence greenhouse trial, crop injury (phytotoxicity/safening) on corn/maize; details: applied alone at 35 g/ha, rated after 20-22 d
Protocol: as §1
as §2, with “All herbicide application (component a) rates are in g ae/ha and all safener (component b) rates are in g ai/ha.” left out
as §3, with “Colby's equation was used to determine the herbicidal effects expected from the mixtures.” left out
as §4, with “compound” for “compound 3, compound 4, compound”, “corn/maize (ZEAMX)” for “wheat (TRZAS),”, “bicolor), and” for “bicolor),”, “media)” for “media), and wild pansy (VIOTR, Viola tricolor)”
The safener mefenpyr-diethyl was combined with compound 1, compound 2, and compound 5, and applied to corn/maize (ZEAMX) and the phytotoxicity of the herbicidal compositions were measured. […]

[7] = tested on: wild pansy (VIOTR, Viola tricolor); assay: Postemergence greenhouse trial, herbicidal efficacy on wild pansy; details: for pest or weed control at 35 g/ha: Viola tricolor, post-emergence, 528 h, read-out: Obs, % visual injury, VIOTR; for % visual injury, Obs, VIOTR: rated after 20-22 d
Protocol: as §1, §2, §3

[8] = tested on: pigweed (AMARE, Amaranthus retroflexus); assay: Postemergence greenhouse trial, herbicidal efficacy on pigweed; details: post-emergence, 528 h
Protocol: as §1, §2, §3

[9] = tested on: sorghum (SORVU, Sorghum bicolor); assay: Postemergence greenhouse trial, herbicidal efficacy on sorghum; details: applied alone at 35 g/ha; for % visual injury, Obs, SORVU: rated after 20-22 d
Protocol: as §1, §2, §3

[10] = tested on: chickweed (STEME, Stellaria media); assay: Postemergence greenhouse trial, herbicidal efficacy on chickweed; details: post-emergence, 528 h
Protocol: as §1, §2, §3

[11] = tested on: velvetleaf (ABUTH, Abutilon theophrasti); assay: Postemergence greenhouse trial, herbicidal efficacy on velvetleaf; details: post-emergence, 528 h
Protocol: as §1, §2, §3

[12] = tested on: wild buckwheat (POLCO, Polygonum convolvulus); assay: Postemergence greenhouse trial, herbicidal efficacy on wild buckwheat; details: Fallopia convolvulus, post-emergence, 528 h
Protocol: as §1, §2, §3

[13] = tested on: giant foxtail (SETFA, Setaria faberi); assay: Postemergence greenhouse trial, herbicidal efficacy on giant foxtail; details: applied alone at 35 g/ha; for % visual injury, Obs, SETFA: rated after 20-22 d; for Obs, % visual injury, SETFA: scored 20-22 d
Protocol: as §1, §2, §3

[14] = tested on: nutsedge (CYPES, Cyperus esculentus); assay: Postemergence greenhouse trial, herbicidal efficacy on nutsedge; details: applied alone at 35 g/ha, rated after 20-22 d
Protocol: as §1, §2, §3

[15] = applied alone at 35 g/ha, postemergence
[16] = read-out: % visual injury, Obs, CIRAR
[17] = read-out: Obs, % visual injury, CIRAR
[18] = read-out: % visual injury, Obs, BRSNW
[19] = read-out: Obs, % visual injury, BRSNW
[20] = read-out: % visual injury, Obs, CHEAL
[21] = read-out: Obs, % visual injury, CHEAL
[22] = read-out: % visual injury, Obs, AMARE
[23] = read-out: Obs, % visual injury, AMARE
[24] = read-out: % visual injury, Obs, STEME
[25] = read-out: Obs, % visual injury, STEME
[26] = read-out: % visual injury, Obs, ABUTH
[27] = read-out: Obs, % visual injury, ABUTH
[28] = read-out: % visual injury, Obs, POLCO
[29] = read-out: Obs, % visual injury, POLCO

SMILES	Obs, % visual injury, TRZAS [5]	% visual injury, Obs, ZEAMX [6]	% visual injury, Obs, VIOTR [7, 15]	% visual injury, Obs, SORVU [9]	% visual injury, Obs, SETFA [13]	Obs, % visual injury, SETFA [13]	pest or weed control at 35 g/ha [1]	pest or weed control at 35 g/ha [2, 16]	pest or weed control at 35 g/ha [2, 17]	plant injury at 35 g/ha [3, 18]	plant injury at 35 g/ha [3, 19]	pest or weed control at 35 g/ha [4, 20]	pest or weed control at 35 g/ha [4, 21]	pest or weed control at 35 g/ha [7]	pest or weed control at 35 g/ha [8, 22]	pest or weed control at 35 g/ha [8, 23]	pest or weed control at 35 g/ha [10, 24]	pest or weed control at 35 g/ha [10, 25]	pest or weed control at 35 g/ha [11, 26]	pest or weed control at 35 g/ha [11, 27]	other results
COCC(=O)n1ccc2ccc(-c3nc(C(=O)OC)c(Cl)c(N)c3F)c(F)c21 [compound 6]	35%	25%	30%	70%	10%	10%															pest or weed control at 35 g/ha ([1]; applied alone at 35 g/ha, postemergence, rated after 20-22 d): 100%; pest or weed control at 35 g/ha ([2]; applied alone at 35 g/ha, postemergence, rated after 20-22 d, read-out: % visual injury, Obs, CIRAR): 75%; pest or weed control at 35 g/ha ([2]; applied alone at 35 g/ha, postemergence, scored 20-22 d, read-out: Obs, % visual injury, CIRAR): 75%; plant injury at 35 g/ha ([3]; applied alone at 35 g/ha, postemergence, rated after 20-22 d, read-out: % visual injury, Obs, BRSNW): 75%; plant injury at 35 g/ha ([3]; applied alone at 35 g/ha, postemergence, scored 20-22 d, read-out: Obs, % visual injury, BRSNW): 75%; pest or weed control at 35 g/ha ([4]; applied alone at 35 g/ha, postemergence, rated after 20-22 d, read-out: % visual injury, Obs, CHEAL): 100%; pest or weed control at 35 g/ha ([4]; applied alone at 35 g/ha, postemergence, scored 20-22 d, read-out: Obs, % visual injury, CHEAL): 100%; pest or weed control at 35 g/ha ([7]; applied alone at 35 g/ha, postemergence, scored 20-22 d): 30%; pest or weed control at 35 g/ha ([8]; applied alone at 35 g/ha, postemergence, rated after 20-22 d, read-out: % visual injury, Obs, AMARE): 100%; pest or weed control at 35 g/ha ([8]; applied alone at 35 g/ha, postemergence, scored 20-22 d, read-out: Obs, % visual injury, AMARE): 100%; pest or weed control at 35 g/ha ([10]; applied alone at 35 g/ha, postemergence, rated after 20-22 d, read-out: % visual injury, Obs, STEME): 97%; pest or weed control at 35 g/ha ([10]; applied alone at 35 g/ha, postemergence, scored 20-22 d, read-out: Obs, % visual injury, STEME): 97%; pest or weed control at 35 g/ha ([11]; applied alone at 35 g/ha, postemergence, rated after 20-22 d, read-out: % visual injury, Obs, ABUTH): 80%; pest or weed control at 35 g/ha ([11]; applied alone at 35 g/ha, postemergence, scored 20-22 d, read-out: Obs, % visual injury, ABUTH): 80%; pest or weed control at 35 g/ha ([12]; applied alone at 35 g/ha, postemergence, rated after 20-22 d, read-out: % visual injury, Obs, POLCO): 97%; pest or weed control at 35 g/ha ([12]; applied alone at 35 g/ha, postemergence, scored 20-22 d, read-out: Obs, % visual injury, POLCO): 97%
CCOC(=O)C1=NOC(c2ccccc2)(c2ccccc2)C1 [isoxadifen-ethyl, reference compound]	0%	0%	0%		0%	0%	0%	0%	0%	0%	0%	0%	0%	0%	0%	0%	0%	0%	0%	0%	pest or weed control at 35 g/ha [12, 28]: 0%; pest or weed control at 35 g/ha [12, 29]: 0%
CCOC(=O)C1=NN(c2ccc(Cl)cc2Cl)C(C)(C(=O)OCC)C1 (centres unmarked) [mefenpyr-diethyl, reference compound]	0%	0%	0%	0%			0%	0%	0%	0%	0%	0%	0%	0%	0%	0%	0%	0%	0%	0%	% visual injury, Obs, CYPES [14]: 0%; Obs, % visual injury, SORVU ([9]; scored 20-22 d): 0%; pest or weed control at 35 g/ha [12, 28]: 0%; pest or weed control at 35 g/ha [12, 29]: 0%
